According to patent publication US11026916B2, “Treatment for non-alcoholic fatty liver diseases” (DSM IP ASSETS B.V., priority 2014, dated 2021):

Columns and labels:
Format in all cases: cell-based, human
CCL4/MIP-1beta = CCL4/MIP-1beta secretion by LPS-stimulated leukocytes (mononuclear cells), multiplex cytokine kit; conditions: for CCL4/MIP-1 b reduction (in words): pre-incubating cells prior to the stimulation with LPS
Experimental: (§1) Leukocytes are obtained from healthy donors. Mononuclear cells (MNC) are purified by Ficoll-Isopaque gradient centrifugation. Cells (at 3-8×10^6 cells/mL) are cultured in phenol-red free RPMI 1640, supplemented with 0.25% FBS, 0.1 mM NEAA, 50 U/mL penicillin, 50 μg/mL streptomycin and 5×10^-5 M 2-mercaptoethanol. Cells are stimulated with LPS (100 ng/mL) and IFN-γ (20 U/mL) for 2-24 h. Multiparametric kits for determination of cytokines and chemokines are purchased from BIO-RAD Laboratories (Hercules, Calif.) and used in the LiquiChip Workstation IS 200 (Qiagen, Hilden, Germany). The data are evaluated with the LiquiChip Analyser software (Qiagen).
(§2) The algorithm developed by Chou and Tatalay is used to calculate synergistic effects (Chou, T-C. Et Tatalay, P. A simple Biol. Chem. 252, 6438-6442, 1977; Chou, T-C. Et Tatalay, P. Analysis of combined drug effects—A new look at a very old problem. Trends in Biological Sciences. November 1983, p 450-454, 1983). Interactions are quantified by the Combination Index (CI). Briefly, the % of inhibition of the concentration of each single substance alone or the mixture of both are determined. The affected fraction (fa) (values between 0 and 1) and unaffected fraction (fu) (1−fa), respectively, is calculated. For median-effect plots, log (fa/fu) is plotted against log (D), where D represents the concentration of each single compound alone or the mixture of both. Using CalcuSyn software (Biosoft, Ferguson, Mo.), which is based upon the method by Chou Et Tatalay, a CI is computed for every fraction affected: a CI<1 reflects synergistic inhibition of the respective inflammatory parameter; if CI=1 the substances have additive interactions; when CI>1 the interaction of substances reflects antagonism. It has also been observed that substances can have synergistic or antagonistic interactions at given concentrations or ratios, respectively (see e.g. Pappa et al. Quantitative combination effects between sulforaphane and 3,3′-[…] diindolylmethane on proliferation of human colon cancer cells in vitro. Carcinogenesis 28, 1471-77, 2007).
(§3) Cells are stimulated with LPS, an pathogen-derived component that induces inflammatory response, which is reflected in the expression of inflammatory genes and the secretion of cytokines, interleukins and chemokines (Table 1). LPS induces a massive increase of the secretion of inflammatory mediators such as TNF-alpha. Concomitantly, inflammatory mediators are secreted. These parameters are modulated by pre-incubating cells with α-tocopherol or ω-3 PUFA prior to the stimulation with LPS. For instance, the pro-inflammatory cytokine […] is reduced by 29% and 64%, respectively (Table 1a). […] Thus, the substances reduces the extent of the inflammatory stress in cells that respond to inflammatory stimuli.

IL-1beta = IL-1beta secretion by LPS-stimulated leukocytes (mononuclear cells), multiplex cytokine kit; conditions: for IL-1beta reduction (in words): pre-incubating cells prior to the stimulation with LPS
Experimental: as §1, with “(Qiagen). […]” for “(Qiagen).”
as §3

TNF-alpha = TNF-alpha secretion by LPS-stimulated leukocytes (mononuclear cells), multiplex cytokine kit; conditions: for % reduction of TNF-alpha: pre-incubating cells prior to the stimulation with LPS, concentration not stated in the sentence (Table 1a)
Experimental: as §1, §2, §3

Row | Structure (SMILES) | CCL4/MIP-1 b reduction (in words) (CCL4/MIP-1beta) | % inhibition (vs LPS) of CCL4 (CCL4/MIP-1beta; single substance 10 μM + LPS) [%] | CCL4 pg/mL ± SD (CCL4/MIP-1beta; single substance 10 μM + LPS) [pg/mL] | % inhibition (vs LPS) of CCL4 (CCL4/MIP-1beta; single substance 50 μM + LPS) [%] | CCL4 pg/mL ± SD (CCL4/MIP-1beta; single substance 50 μM + LPS) [pg/mL] | IL-1beta reduction (in words) (IL-1beta) | % inhibition (vs LPS) of IL-1beta (IL-1beta; single substance 10 μM + LPS) [%] | IL-1beta pg/mL ± SD (IL-1beta; single substance 10 μM + LPS) [pg/mL] | % inhibition (vs LPS) of IL-1beta (IL-1beta; single substance 50 μM + LPS) [%] | IL-1beta pg/mL ± SD (IL-1beta; single substance 50 μM + LPS) [pg/mL] | % reduction of TNF-alpha (TNF-alpha) [%] | % inhibition (vs LPS) of TNF-alpha (TNF-alpha; single substance 10 μM + LPS) [%] | TNF-alpha pg/mL ± SD (TNF-alpha; single substance 10 μM + LPS) [pg/mL] | % inhibition (vs LPS) of TNF-alpha (TNF-alpha; single substance 50 μM + LPS) [%] | TNF-alpha pg/mL ± SD (TNF-alpha; single substance 50 μM + LPS) [pg/mL] | other results
1 | Cc1c(C)c2c(c(C)c1O)CC[C@@](C)(CCC[C@H](C)CCC[C@H](C)CCCC(C)C)O2 [AT, α-tocopherol] | significantly reduced | 7 | 91400 ± 5657 | 15 | 83900 ± 3111 | significantly reduced | −7 | 6770 ± 438 | 9 | 5735 ± 134 | 29 | −4 | 5505 ± 177 | 29 | 3755 ± 21 | % inhibition (vs LPS) of CCL4 (CCL4/MIP-1beta; single substance 200 μM + LPS): 11%; CCL4 pg/mL ± SD (CCL4/MIP-1beta; single substance 200 μM + LPS): 87950 ± 3165 pg/mL; % inhibition (vs LPS) of IL-1beta (IL-1beta; single substance 200 μM + LPS): 14%; IL-1beta pg/mL ± SD (IL-1beta; single substance 200 μM + LPS): 5430 ± 113 pg/mL; % inhibition (vs LPS) of TNF-alpha (TNF-alpha; single substance 200 μM + LPS): 27%; TNF-alpha pg/mL ± SD (TNF-alpha; single substance 200 μM + LPS): 3870 ± 14 pg/mL
2 | CC/C=C\C/C=C\C/C=C\C/C=C\C/C=C\C/C=C\CCC(=O)O [DHA, (all-Z)-4,7,10,13,16,19-docosahexaenoic acid] | significantly reduced | 32 | 79995 ± 3465 | 62 | 37600 ± 778 | significantly reduced | 14 | 5405 ± 742 | 77 | 1440 ± 71 | 64 | 60 | 3190 ± 14 | 59 | 3105 ± 163 | % inhibition (vs LPS) of CCL4 (CCL4/MIP-1beta; single substance 20 μM + LPS): 62%; CCL4 pg/mL ± SD (CCL4/MIP-1beta; single substance 20 μM + LPS): 67000 ± 7523 pg/mL; % inhibition (vs LPS) of IL-1beta (IL-1beta; single substance 20 μM + LPS): 23%; IL-1beta pg/mL ± SD (IL-1beta; single substance 20 μM + LPS): 4865 ± 1633 pg/mL; % inhibition (vs LPS) of TNF-alpha (TNF-alpha; single substance 20 μM + LPS): 64%; TNF-alpha pg/mL ± SD (TNF-alpha; single substance 20 μM + LPS): 3400 ± 523 pg/mL
